Experimental data as given in patent US20250034264A1, “REGULATING T CELL IMMUNE RESPONSE THROUGH IGF-I RECEPTOR (IGF-1R)” (The Regents of the University of Michigan, priority 2021, published 2025).

Assays:
[1] = tested on: circulating CD3+CD4+ T cells; assay: Phase 2 TAO trial: INFγ and IL-17A in circulating T cells (flow cytometry); assay type: in vivo, human; settings: TAO patients, 20 mg/Kg, 24-week treatment
Procedure: (§1) Studies of circulating CD34^+ fibrocytes and T cells PBMCs from patients with active, moderate to severe TAO enrolled in a phase 2 trial for teprotumumab were cryopreserved immediately after collection. Venous blood sampling occurred at baseline and at week 24, following 8 infusions at 3 weekly intervals. The post-treatment sample was obtained 3 weeks after the final infusion of active drug or placebo. Samples were thawed and incubated with 10% knockout serum replacement medium for 1h and stained. Rinsed samples were subjected to FACS analysis with a Calibur flow cytometer (BD). Viable cells were gated on the basis of forward light scatter. All samples were analyzed using quadrant settings based on negative staining with isotype control antibodies. Mean fluorescent intensity (MFI) was calculated as the ratio of mean sample to isotype control fluorescence. Data were analyzed with FCS Express software (De Novo Software, Ontario, CA).

[2] = tested on: fibrocytes and GD-OF; assay: BAFF expression and induction by bTSH; assay type: cell-based, human; settings: teprotumumab 50 μg/ml or rhSlit2 50 ng/ml
Procedure: FIGS. 12A-12F are graphs showing the effect of bTSH, teprotumumab, and Slit2 on B-cell activating factor (BAFF) expression in fibrocytes and GD-OF. In FIGS. 12A and 12B, cultures were treated for the graded intervals indicated along the abscissas with bTSH (5 mIU/mL). Cellular RNA was harvested and subjected to reverse transcription by RT-PCR (FIG. 12A). Values were normalized to their respective GAPDH levels Medium was assayed for BAFF levels with an ELISA (FIG. 12B). Values were normalized to respective monolayer protein content. Data are expressed as mean f SD of triplicate determinations; *, p<0.05; **, p<0.01; ***, p<0.001. In FIGS. 12C-12F, bTSH, teprotumumab (50 μg/ml) or recombinant human Slit2 (rhSlit2) (50 ng/ml) were added to culture media for the times indicated and analyzed for BAFF mRNA levels as in FIG. 12A. In FIGS. 12F, parental GD-OF strains were sorted into pure CD34^+ and CD34^− subsets. Subsets were then cultured for 48 h, the final 6 h in the absence or presence of bTSH. Data were expressed as mean f SD of triplicate independent determinations from a single experiment representative of three conducted. *, p<0.05; **, p<0.01
IL-12, IL-23, IL-10, HA and BAFF ELISAs. Confluent cultures were treated with nothing or teprotumumab (50 μg/mL) for 5 d, without or with bTSH (5 mU/mL) for the intervals indicated or 72 h. […]

[3] = tested on: fibrocytes; assay: RNA Pol II ChIP transcription assay; assay type: cell-based, human; settings: 50 μg/mL
Procedure: RNA Pol II ChIP transcription assay Transcriptional assays were performed using the method of Wells and Farnham (Methods (San Diego, Calif.) 26, 48-56(2002). Confluent cultures were treated with human Isotype IgG or teprotumumab (50 μg/mL) in DMEM with 10% FBS for 3 d, rinsed, and shifted to DMEM with 1% FBS for 16 h with the respective additives, and then treated without or with bTSH (5 mU/mL) for 2 h. Cross-linked protein/DNA and isolated chromatin fragments were immunoprecipitated with target antibodies: anti-HLA-DPB1 [EPR11226] (cat. #abl57210), anti-CD80 [EPR22183] (cat. #ab225674), anti-CD86 [EPR21962] (cat. #ab239075), and anti-PD-L1 [EPR19759](cat. #ab213524),) from Abcam (Cambridge, MA) using the Pierce™ Agarose Chip Kit (Thermo Scientific, cat #26156). Eluted fractions were reverse cross-linked and isolated DNA subjected to RT-PCR using EpiTect ChIP qPCR Primer Assay for human HLA-DRA (cat. #GPH1011269(-)02A, HLA-DRB1 (cat. #GPH1024837(-)02A), CD80 (cat. #GPH1023189(-)02A), CD86 (cat. #GPH1009502(-)02A), PD-L1 (cat. #GPH1012902(-)02A, Qiagen. GAPDH served as the housekeeping gene and values were generated according to the protocol provided by the supplier.

[4] = tested on: circulating CD34+CXCR4+ fibrocytes; assay: Phase 2 TAO trial: MHC II and B7 proteins in circulating fibrocytes (flow cytometry); assay type: in vivo, human; settings: TAO patients, 20 mg/Kg, 24-week treatment
Procedure: as §1

[5] = tested on: fibrocyte/adherent T cell co-cultures; assay: IL-17A and INFγ released into culture medium (ELISA); assay type: cell-based, human; settings: 50 μg/mL, day 9
From the text: ELISAs Media were collected from cultures treated as indicated and analyzed for concentrations of […] and IL-17A using specific ELISA kits (R&D systems) according to the manufacture's protocol.

Substance: teprotumumab
- reduction of IL-17A expression level in CD4+ T cells [1]: 47%
- reduction of INFγ expression level in CD4+ T cells [1]: 41%
- bTSH induction of BAFF [2]: attenuated
- basal and bTSH-induced transcription of MHC II, CD80, CD86, PD-L1 genes [3]: attenuated
- reduction of CD80 expression level compared to baseline [4]: 54%
- reduction of CD86 expression level compared to baseline [4]: 47%
- reduction of MHC-II expression level compared to baseline [4]: 40%
- reduction of PD-L1 expression level compared to baseline [4]: 47%
- reduction of IL-17A released into the culture media [5]: 52%
- reduction of INFγ released into the culture media [5]: 54%
